# Source: ChEMBL document CHEMBL1151494, “Synthesis of new building blocks for peptide nucleic acids containing monomers with variations in the backbone” (Bioorg Med Chem Lett, 1997)
# The source made the active and inactive calls. No cut-off for these calls is given here.
# Legend:
# [1] = test system: Proteinase K (Tritirachium album); experiment: The stability against proteinase K; Active
# [2] = The stability against nucleases; Active
Stability [1],Stability [2],SMILES
Active,Active,Cc1cn(CC(=O)N2C[C@H](N)C[C@H]2C(=O)NC2C[C@@H](C(=O)N[C@@H]3C[C@@H](C(=O)NC4C[C@@H](C(=O)N[C@@H]5C[C@@H](C(=O)NC6C[C@@H](C(=O)N[C@@H]7C[C@@H](C(=O)NC8C[C@@H](C(=O)N[C@@H](C)C(=O)O)N(C(=O)Cn9cc(C)c(=O)[nH]c9=O)C8)N(C(=O)Cn8cc(C)c(=O)[nH]c8=O)C7)N(C(=O)Cn7cc(C)c(=O)[nH]c7=O)C6)N(C(=O)Cn6cc(C)c(=O)[nH]c6=O)C5)N(C(=O)Cn5cc(C)c(=O)[nH]c5=O)C4)N(C(=O)Cn4cc(C)c(=O)[nH]c4=O)C3)N(C(=O)Cn3cc(C)c(=O)[nH]c3=O)C2)c(=O)[nH]c1=O (stereo partly drawn)
Active,Active,Cc1cn([C@H]2C[C@@H](C(=O)NCC(=O)O)N(C(=O)CNC(=O)[C@@H]3C[C@H](n4cc(C)c(=O)[nH]c4=O)CN3C(=O)CNC(=O)[C@@H]3C[C@H](n4cc(C)c(=O)[nH]c4=O)CN3C(=O)CNC(=O)[C@@H]3C[C@H](n4cc(C)c(=O)[nH]c4=O)CN3C(=O)CNC(=O)[C@@H]3C[C@H](n4cc(C)c(=O)[nH]c4=O)CN3C(=O)CNC(=O)[C@@H]3C[C@H](n4cc(C)c(=O)[nH]c4=O)CN3C(=O)CNC(=O)[C@@H]3C[C@H](n4cc(C)c(=O)[nH]c4=O)CN3C(=O)CNC(=O)[C@@H]3C[C@H](n4cc(C)c(=O)[nH]c4=O)CN3C(=O)[C@@H](N)CCCCN)C2)c(=O)[nH]c1=O
Active,Active,Cc1cn(CC(=O)N2C[C@@H](N)C[C@H]2C(=O)NC2C[C@@H](C(=O)N[C@H]3C[C@@H](C(=O)NC4C[C@@H](C(=O)N[C@H]5C[C@@H](C(=O)NC6C[C@@H](C(=O)N[C@H]7C[C@@H](C(=O)NC8C[C@@H](C(=O)N[C@@H](C)C(=O)O)N(C(=O)Cn9cc(C)c(=O)[nH]c9=O)C8)N(C(=O)Cn8cc(C)c(=O)[nH]c8=O)C7)N(C(=O)Cn7cc(C)c(=O)[nH]c7=O)C6)N(C(=O)Cn6cc(C)c(=O)[nH]c6=O)C5)N(C(=O)Cn5cc(C)c(=O)[nH]c5=O)C4)N(C(=O)Cn4cc(C)c(=O)[nH]c4=O)C3)N(C(=O)Cn3cc(C)c(=O)[nH]c3=O)C2)c(=O)[nH]c1=O (stereo partly drawn)
Active,Active,Cc1cn([C@@H]2C[C@@H](C(=O)NCC(=O)O)N(C(=O)CNC(=O)[C@@H]3C[C@@H](n4cc(C)c(=O)[nH]c4=O)CN3C(=O)CNC(=O)[C@@H]3C[C@@H](n4cc(C)c(=O)[nH]c4=O)CN3C(=O)CNC(=O)[C@@H]3C[C@@H](n4cc(C)c(=O)[nH]c4=O)CN3C(=O)CNC(=O)[C@@H]3C[C@@H](n4cc(C)c(=O)[nH]c4=O)CN3C(=O)CNC(=O)[C@@H]3C[C@@H](n4cc(C)c(=O)[nH]c4=O)CN3C(=O)CNC(=O)[C@@H]3C[C@@H](n4cc(C)c(=O)[nH]c4=O)CN3C(=O)CNC(=O)[C@@H]3C[C@@H](n4cc(C)c(=O)[nH]c4=O)CN3C(=O)[C@@H](N)CCCCN)C2)c(=O)[nH]c1=O
